From ChEMBL document CHEMBL1150551, “Novel angiotensin converting enzyme inhibitors containing -hydroxy ketomethylene dipeptide isosteres” (Bioorg Med Chem Lett, 1994)
pIC50: −log10 of the molar value.

What follows are compounds tested against T1, Angiotensin-converting enzyme (Oryctolagus cuniculus, UniProt P12822) (assay: Inhibitory concentration against angiotensin converting enzyme (ACE); No activity in experimental concentration range).
T1 sequence (P12822 whole entry): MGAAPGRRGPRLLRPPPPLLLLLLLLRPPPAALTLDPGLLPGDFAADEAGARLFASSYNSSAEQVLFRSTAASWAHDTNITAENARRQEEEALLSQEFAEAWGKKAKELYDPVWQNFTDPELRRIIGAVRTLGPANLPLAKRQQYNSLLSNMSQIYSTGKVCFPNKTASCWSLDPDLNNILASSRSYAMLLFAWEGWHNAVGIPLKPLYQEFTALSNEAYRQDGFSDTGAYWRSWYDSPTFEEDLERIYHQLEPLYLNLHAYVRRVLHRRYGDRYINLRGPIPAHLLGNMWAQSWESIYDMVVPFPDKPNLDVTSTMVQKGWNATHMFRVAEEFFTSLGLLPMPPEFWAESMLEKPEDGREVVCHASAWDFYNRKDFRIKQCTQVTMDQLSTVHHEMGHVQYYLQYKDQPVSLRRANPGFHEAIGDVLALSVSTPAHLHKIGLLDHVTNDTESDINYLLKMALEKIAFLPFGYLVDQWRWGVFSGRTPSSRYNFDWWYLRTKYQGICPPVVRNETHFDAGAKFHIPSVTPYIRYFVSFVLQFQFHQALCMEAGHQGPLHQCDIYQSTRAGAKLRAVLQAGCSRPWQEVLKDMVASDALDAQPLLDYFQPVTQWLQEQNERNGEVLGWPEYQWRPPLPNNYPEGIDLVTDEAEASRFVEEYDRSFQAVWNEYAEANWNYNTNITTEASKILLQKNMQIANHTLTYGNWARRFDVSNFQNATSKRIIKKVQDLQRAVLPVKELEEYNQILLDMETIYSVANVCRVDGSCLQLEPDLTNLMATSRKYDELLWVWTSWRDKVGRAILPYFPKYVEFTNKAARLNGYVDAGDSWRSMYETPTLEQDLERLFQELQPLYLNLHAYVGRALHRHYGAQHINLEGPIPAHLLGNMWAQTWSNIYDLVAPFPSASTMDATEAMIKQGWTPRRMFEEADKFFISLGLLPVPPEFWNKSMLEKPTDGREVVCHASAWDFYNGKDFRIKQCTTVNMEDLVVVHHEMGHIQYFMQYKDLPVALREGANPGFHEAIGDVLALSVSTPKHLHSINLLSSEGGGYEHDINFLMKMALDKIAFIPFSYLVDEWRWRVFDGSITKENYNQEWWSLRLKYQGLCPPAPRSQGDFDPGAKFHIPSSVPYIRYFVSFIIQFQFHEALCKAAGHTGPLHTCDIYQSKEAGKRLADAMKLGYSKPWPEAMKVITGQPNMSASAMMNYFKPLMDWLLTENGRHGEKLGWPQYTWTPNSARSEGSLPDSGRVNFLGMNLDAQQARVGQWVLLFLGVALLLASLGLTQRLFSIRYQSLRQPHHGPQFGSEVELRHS

Row | Compound | IC50
1 | O=C(N[C@@H](Cc1ccccc1)C1=NO[C@H](C(=O)N2c3ccccc3C[C@H]2C(=O)O)C1)c1ccccc1 | Not Active
2 | O=C(N[C@@H](Cc1ccccc1)C1=NO[C@H](C(=O)N2CCC[C@H]2C(=O)O)C1)c1ccccc1 | Not Active
3 | O=C(N[C@@H](Cc1ccccc1)C1=NO[C@@H](C(=O)N2CCC[C@H]2C(=O)O)C1)c1ccccc1 | Not Active

Each compound was assayed against T1, Angiotensin-converting enzyme (assay: Inhibitory concentration against angiotensin converting enzyme (ACE)).

Row | Compound | pIC50
4 | O=C(N[C@@H](Cc1ccccc1)C(=O)C[C@@H](O)C(=O)N1CCC[C@H]1C(=O)O)c1ccccc1 | 5.30
5 | O=C(N[C@@H](Cc1ccccc1)C(=O)C[C@H](O)C(=O)N1CCC[C@H]1C(=O)O)c1ccccc1 | 4.00
6 | O=C(N[C@@H](Cc1ccccc1)C(=O)C[C@H](O)C(=O)N1c2ccccc2C[C@H]1C(=O)O)c1ccccc1 | 5.30
7 | O=C(N[C@@H](Cc1ccccc1)C(=O)C[C@@H](O)C(=O)N1c2ccccc2C[C@H]1C(=O)O)c1ccccc1 | 7.05
8 | O=C(N[C@@H](Cc1ccccc1)C1=NO[C@@H](C(=O)N2c3ccccc3C[C@H]2C(=O)O)C1)c1ccccc1 | < 3.00
